Laboratory results reported in patent US20120189673A1, “POLYPEPTIDES AND USES THEREOF” (priority 2009, published 2012).

Experiments:
[1] = molecular target: C3a (complement anaphylatoxin C3a peptides in chronic wound fibrin slough) (human) (UniProt P01024); test: double immunogold electron microscopy (C3a 10 nm, C-termini of TFPI 20 nm), evaluation of 50 bacterial profiles in wound fibrin slough
[2] = test system: Escherichia coli, Pseudomonas aeruginosa, Bacillus subtilis, Staphylococcus aureus, Candida albicans, Candida parapsilosis; test: Radial diffusion assay (RDA); assay type: cell-based; conditions: peptide at 100 μM, 6 μl per well; 18-24 h at 37° C.
Method: Radial diffusion assay. Essentially as described earlier, bacteria were grown to mid-logarithmic phase in 10 ml of full-strength (3% w/v) trypticase soy broth (TSB) (Becton-Dickinson). The microorganisms were then washed once with 10 mM Tris, pH 7.4. Subsequently, 4×10^6 cfu were added to 15 ml of the underlay agarose gel, consisting of 0.03% (w/v) TSB, 1% (w/v) low electroendosmosis type (EEO) agarose (Sigma-Aldrich) and 0.02% (v/v) Tween 20 (Sigma-Aldrich). The underlay was poured into a Ø 144 mm petri dish. After agarose solidification, 4 mm-diameter wells were punched and 6 μl peptide solution of required concentration added to each well. Plates were incubated at 37° C. for 3 h to allow peptide diffusion. The underlay gel was then covered with 15 ml of molten overlay (6% TSB and 1% Low-EEO agarose in distilled H2O). Antimicrobial activity of a peptide was visualized as a zone of clearing around each well after 18-24 h of incubation at 37° C.
Radial diffusion assay—Essentially as described earlier (23, 24), bacteria were grown to mid-logarithmic phase in 10 ml of full-strength (3% w/v) trypticase soy broth (TSB) (Becton-Dickinson). The microorganisms were then washed once with 10 mM Tris, pH 7.4. […]

RAW 264.7 macrophages = test: NO production in RAW 264.7 macrophages stimulated with LPS or other microbial products (Griess reaction); assay type: cell-based, mouse; conditions: LPS from E. coli or P. aeruginosa; peptide at indicated concentrations (FIG. 41C)
Method: Effects of various microbial products on macrophages in vitro and anti-inflammatory effects by various peptides of HCII and TFPI. 3.5×10^5 cells were seeded in 96-well tissue culture plates (Nunc, 167008) in phenol red-free DMEM (Gibco) supplemented with 10% FBS and antibiotics. Following 6 hours of incubation to permit adherence, cells were stimulated with 10 ng/mL E. coli (0111:B4) LPS (Sigma), lipoteichoic acid, peptioglycan, or zymosan, with and without peptides at the indicated doses (se figure legends and figures). The levels of NO in culture supernatants were determined after 24 hours from stimulation using the Griess reaction. Briefly, nitrite, a stable product of NO degradation, was measured by mixing 50 μl of culture supernatants with the same volume of Griess reagent (Sigma, G4410) and reading absorbance at 550 nm after 15 min. Phenol-red free DMEM with FBS and antibiotics were used as a blank. A standard curve was prepared using 0-80 μM sodium nitrite solutions in ddH20.
LPS effects on macrophages in vitro—[…] cells were seeded in 96-well tissue culture plates (Nunc, 167008) in phenol red-free DMEM (Gibco) supplemented with 10% FBS containing 1% Anti-Anti (Invitrogen). Following 20 hours of incubation to permit adherence, cells were washed and stimulated with 10 ng/ml E. coli (0111:B4) or P. aeruginosa LPS (Sigma), with and without the peptides GGL27, GGL27(S), and DSE25 of various doses. The levels of NO in culture supernatants were determined after 24 hours from stimulation using the Griess reaction (27). Briefly, nitrite, a stable product of NO degradation, was measured by mixing 50 μl of culture supernatants with the same volume of Griess reagent (Sigma, G4410) and reading absorbance at 550 nm after 15 min. Phenol-red free DMEM with FBS and antibiotics were used as a blank. A standard curve was prepared using 0-80 μM sodium nitrite solutions in ddH20.

[3] = test system: E. coli LPS shock in C57BL/6 mice; test: LPS model in vivo (LPS-induced shock): survival, cytokines, lungs; design: species or system mouse; conditions: for overall (proinflammatory) cytokine release: 20 h after LPS injection, peptide 500 μg; for survival: E. coli LPS i.p., peptide 500 μg i.p. 30 minutes after, followed 7 days
Method: Histochemistry—For immunostaining, wound biopsies were fixed in 10% formalin, rehydrated and embedded in paraffin. Sections of 5 μm thickness were placed on poly-lysine coated glass slides, deparaffinized in xylene and rehydrated in graded alcohols. The slides were then treated with Dako antigen retrieval solution (Dako) for 40 min at 97° C., and incubated for 24 h at room temperature in a 1:50 dilution of polyclonal antibodies against TFPI (Sigma-Aldrich, in TBS with 1% BSA, 5% goat serum, 0.05% Tween 20). After three 20 min washes in TBS with 0.05% Tween 20, the sections were incubated with alkaline phosphatase conjugated secondary goat anti-rabbit IgG (Dako) diluted 1:1000 in the same buffer as the primary antibody and incubated for another 24 hours, followed by three 20 min washes. Sections were developed with Vulcan Fast Red chromogen (Biocare Medical, Concord, Calif.) and the slides were counterstained with Harris Hematoxylin (EM Science, Gibbstown, N.J.). For histological evaluation of lungs derived from the in vivo LPS-models in mice, tissues were embedded as above, sectioned and stained with hematoxylin and eosin by routine procedures (Histocenter, Gothenburg, Sweden).
LPS model in vivo—Male C57BL/6 mice (8-10 weeks, 22+/−5 g), were injected intraperitoneally with 18 mg E. coli 0111:B4 LPS (Sigma) per kg of body weight. Thirty minutes after LPS injection, 0.5 mg GGL27, GGL27(S), DSE25 or buffer alone was injected intraperitoneally into the mice. Survival and status was followed during seven days. For blood collection and histochemistry, mice were sacrificed 20 h after LPS challenge, and lungs were removed and fixed. These experiments were approved by the Laboratory Animal Ethics Committee of Malmo/Lund.
Cytokine assay—The cytokines IL-6, IL-10, MCP-1, INF-γ, and TNF-α were measured in plasma from mice subjected to LPS (with or without peptide treatment) using the Cytometric bead array; mouse inflammation kit (Becton Dickinson AB) according to the manufacturer's instructions.

bacteria = conditions: cited from earlier work
[4] = test system: thrombin induced fibrin network formation in normal human plasma; test: Clotting assay: thrombin clotting time (TCT); assay type: biochemical
Method: (§1) Clotting assays. All clotting times were measured using an Amelung coagulometer. Activated partial thromboplastin time (aPTT) was measured by incubating the peptides diluted in sterile water at the indicated concentrations, with 100 μL citrated human plasma for 1 minute followed by the addition of 100 μL aPTT reagent (aPTT Automate, Diagnostica Stago) for 60 seconds at 37° C. Clotting was initiated by the addition of 100 μL of a 25-mM CaCl2 solution. In the prothombrin time assay (PT), clotting was initiated by the addition of 100 μL Thrombomax with calcium (PT reagent; Sigma-Aldrich). For measuring the thrombin clotting time (TCT), clotting was initiated by the addition of 100 μL Accuclot thrombin time reagent (TCT reagent; Sigma-Aldrich).

E. coli = test: Viable count analysis, E. coli; assay type: cell-based, Escherichia coli
Method: Viable count analysis. E. coli ATCC 25922 bacteria were grown to mid-logarithmic phase in Todd-Hewitt (TH) medium. Bacteria were washed and diluted in 10 mM Tris, pH 7.4 containing 5 mM glucose. E. coli ATCC 25922 (50 μl; 2×10^6 cfu/ml) were incubated, at 37° C. for 2 h with peptides at the indicated concentrations. Other experiments with the TFPI-peptides and LL-37 were performed in 10 mM Tris, pH 7.4, containing also 0.15 M NaCl, with normal or heat inactivated 20% citrate-plasma (PP). Serial dilutions of the incubation mixture were plated on TH agar, followed by incubation at 37° C. overnight and cfu determination.
(§2) Viable count analysis—E. coli strains were grown to mid-logarithmic phase in Todd-Hewitt (TH). P. aeruginosa strains were grown in TH overnight. Bacteria were washed and diluted in 10 mM Tris, pH 7.4 containing 5 mM glucose. 2×10^6 cfu/ml bacteria were incubated in 50 μl, at 37° C. for 2 h with the C-terminal TFPI-derived peptides GGL27, TKR22, or LIK17 at the indicated concentrations. Additional experiments were performed in 10 mM Tris, pH 7.4, containing 0.15 M NaCl, either alone or with 20% normal or heat inactivated citrate-plasma. Serial dilutions of the incubation mixture were plated on TH agar, followed by incubation at 37° C. overnight and cfu determination.

P. aeruginosa = test: Viable count analysis, P. aeruginosa; assay type: cell-based, Pseudomonas aeruginosa; conditions: 20% human citrate plasma
Method: as §2

[5] = test system: intrinsic pathway of coagulation in normal human plasma; test: Clotting assay: activated partial thromboplastin time (aPTT); assay type: biochemical
Method: as §1

Sequence of C3a (complement anaphylatoxin C3a peptides in chronic wound fibrin slough) (human) (P01024 672-748): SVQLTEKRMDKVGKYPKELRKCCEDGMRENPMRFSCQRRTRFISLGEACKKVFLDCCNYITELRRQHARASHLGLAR

Row | Substance | antimicrobial activity (zones of clearance) [2] | LPS-mediated NO release (RAW 264.7 macrophages) | overall (proinflammatory) cytokine release [3] | survival [3] | antibacterial activity at physiological conditions (bacteria) | also measured
1 | C-terminal TFPI peptides (endogenous C-terminal fragments of tissue factor pathway inhibitor found in human chronic wound fibrin slough) (from UniProt P10646 268-304) |  |  |  |  |  | percent of TFPI-molecules associated with C3a [1]: 70%
2 | DSEEDEEHTIITDTELPPLKLMHSF (DSE25 control peptide) [control peptide from the N-terminus of TFPI, reference compound] | no antimicrobial effects | did neither block NO release | nor significantly alter overall cytokine release | nor significantly alter overall cytokine release, as well as survival |  | 
3 | GGLISTSSSSSSQRVKIAYEEIFVKNM (GGL27(S) control peptide) [control peptide, central K/R residues of GGL27 replaced by S, reference compound] | no antimicrobial effects | did neither block NO release | nor significantly alter overall cytokine release | nor significantly alter overall cytokine release, as well as survival |  | 
4 | GKRKKKGKGLGKKRDPCLRKYK (Heparin-binding growth factor derived peptide) [GKR22] |  |  |  |  | retain their antibacterial activity at physiological conditions | 
5 | HKHGHGHGKHKNKGKKNGKH (A kininogen-derived antimicrobial peptide) [HKH20] |  |  |  |  | retain their antibacterial activity at physiological conditions | 
6 | TKRKRKKQRVKIAYEEIFVKNM [TKR22, C-terminal peptide of TFPI] |  |  |  |  |  | thrombin clotting time (TCT) [4]: not significantly affected; bactericidal activity in presence of human plasma (E. coli; 0.15 M NaCl, 10 mM Tris, pH 7.4 with 20% human citrate plasma, versus buffer): significantly enhanced; bactericidal activity in heat-inactivated plasma (E. coli; 20% heat-inactivated human citrate plasma): abolished the potentiation; killing in human plasma compared with physiological buffer (P. aeruginosa): not enhanced; activated partial thromboplastin time (aPTT) [5]: impair the intrinsic pathway of coagulation
